Test results from article PMC10644720 (Frontiers in Pharmacology, 2023).

Tested on: human washed platelets
Experiment: Clot retraction experiment
Type: cell-based
Conditions: luteolin 100 μM; 0.1 U/mL thrombin
Procedure: Clot retraction experiments were completed using the previously reported method ([Zhang et al., 2015]). […] Then, 200 μL of WPs were placed in a siliconized glass tube with 1 mM CaCl2, 0.1 U/mL thrombin, and 10 µL PPP, mixed well, and left at 37°C. Pictures were taken every 5 min. The clot size was calculated using ImageJ software.

O=c1cc(-c2ccc(O)c(O)c2)oc2cc(O)cc(O)c12 [Luteolin]
thrombin-induced clot retraction: inhibited
